{"source": "ChEMBL document CHEMBL4382229", "about": "“Benzofuran derivatives and their anti-tubercular, anti-bacterial activities” (Eur J Med Chem, 2019)", "assay_type_in_all_cases": "functional", "key": {"[1]": {"system": "Pseudomonas aeruginosa", "experiment": "Potency index, ratio of streptomycin MIC to test compound MIC for Pseudomonas aeruginosa MTCC 1034"}, "[2]": {"system": "Escherichia coli", "experiment": "Antibacterial activity against Escherichia coli MTCC 1559 after 24 hrs by broth dilution method", "conditions": "MTCC 1559, 24 h"}, "[3]": {"system": "Pseudomonas aeruginosa", "experiment": "Antibacterial activity against Pseudomonas aeruginosa MTCC 1034 after 24 hrs by broth dilution method", "conditions": "MTCC 1034, 24 h"}, "[4]": {"system": "Bacillus subtilis", "experiment": "Antibacterial activity against Bacillus subtilis MTCC 1134 after 24 hrs by broth dilution method", "conditions": "MTCC 1134, 24 h"}, "[5]": {"system": "Bacillus subtilis", "experiment": "Potency index, ratio of streptomycin MIC to test compound MIC for Bacillus subtilis MTCC 1134"}, "[6]": {"system": "Escherichia coli", "experiment": "Potency index, ratio of streptomycin MIC to test compound MIC for Escherichia coli MTCC 1559"}, "[7]": {"system": "Mycobacterium tuberculosis", "experiment": "Antitubercular activity against Mycobacterium tuberculosis Erdman infected in BALB/c mouse assessed as reduction in bacterial load in spleen at 25 mg/kg, po administered once daily via gavage starting from 27 days post infection for 5 consecutive days per week for 4 weeks"}, "[8]": {"system": "Mycobacterium tuberculosis", "experiment": "Antitubercular activity against Mycobacterium tuberculosis Erdman infected in BALB/c mouse assessed as reduction in bacterial load in lungs at 25 mg/kg, po administered once daily via gavage starting from 27 days post infection for 5 consecutive days per week for 4 weeks"}, "[9]": {"system": "Mycobacterium tuberculosis", "experiment": "Antitubercular activity against Mycobacterium tuberculosis H37Rv infected in BALB/c mouse assessed as reduction in bacterial load in lungs at 10 mg/kg, po administered once daily via gavage for 5 consecutive days per week for 2 weeks"}, "[10]": {"system": "Escherichia coli", "experiment": "Antibacterial activity against Escherichia coli ATCC 25922 assessed as diameter of inhibition zone at 5 ug/ml after 24 hrs by agar disc diffusion method", "conditions": "ATCC 25922, 24 h, read-out: IZ"}, "[11]": {"system": "Escherichia coli", "experiment": "Antibacterial activity against Escherichia coli NCIM 2064 assessed as zone of inhibition at 1 ug/ml after 24 hrs by agar diffusion method", "conditions": "NCIM 2064, 24 h, read-out: IZ"}, "[12]": {"system": "Bacillus subtilis", "experiment": "Antibacterial activity against Bacillus subtilis NCIM 2439 assessed as zone of inhibition at 1 ug/ml after 24 hrs by agar diffusion method", "conditions": "NCIM 2439, 24 h, read-out: IZ"}, "[13]": {"system": "Pseudomonas aeruginosa", "experiment": "Antibacterial activity against Pseudomonas aeruginosa NCIB 8650 assessed as zone of inhibition at 1 ug/ml after 24 hrs by agar diffusion method", "conditions": "NCIB 8650, 24 h, read-out: IZ"}, "[14]": {"system": "Staphylococcus aureus", "experiment": "Antibacterial activity against Staphylococcus aureus NCIM 2079 assessed as zone of inhibition at 1 ug/ml after 24 hrs by agar diffusion method", "conditions": "NCIM 2079, 24 h, read-out: IZ"}, "[15]": {"system": "Staphylococcus aureus", "experiment": "Antibacterial activity against Staphylococcus aureus assessed as diameter of inhibition zone at 250 ug/ml after 24 hrs by disc diffusion method", "conditions": "read-out: DIZ"}, "[16]": {"system": "Escherichia coli", "experiment": "Antibacterial activity against Escherichia coli assessed as diameter of inhibition zone at 250 ug/ml after 24 hrs by disc diffusion method", "conditions": "read-out: DIZ"}, "[17]": {"system": "Pseudomonas aeruginosa", "experiment": "Antibacterial activity against Pseudomonas aeruginosa ATCC 27953 assessed as diameter of inhibition zone at 5 ug/ml after 24 hrs by agar disc diffusion method", "conditions": "ATCC 27953, 24 h, read-out: IZ"}, "[18]": {"system": "Escherichia coli", "experiment": "Potency index, ratio of ciprofloxacin MIC to test compound MIC for Escherichia coli"}, "[19]": {"system": "Staphylococcus aureus", "experiment": "Antibacterial activity against Staphylococcus aureus by broth dilution method"}, "[20]": {"system": "Pseudomonas aeruginosa", "experiment": "Antibacterial activity against Pseudomonas aeruginosa by broth dilution method"}, "[21]": {"system": "Bacillus subtilis", "experiment": "Antibacterial activity against Bacillus subtilis by broth dilution method"}, "[22]": {"system": "Bacillus subtilis", "experiment": "Potency index, ratio of ciprofloxacin MIC to test compound MIC for Bacillus subtilis"}, "[23]": {"system": "Escherichia coli", "experiment": "Antibacterial activity against Escherichia coli by broth dilution method"}, "[24]": {"system": "Staphylococcus aureus", "experiment": "Potency index, ratio of ciprofloxacin MIC to test compound MIC for Staphylococcus aureus"}}}
{"compound": "Cc1ccc(-c2cc(-c3cc4ccccc4o3)nc(N)n2)s1", "values": [{"measurement": "Ratio", "setting": "[1]", "result": ">3"}, {"measurement": "MIC", "setting": "[2]", "result": "4.32 to 6.32", "unit": "µg/mL"}, {"measurement": "MIC", "setting": "[3]", "result": "4.32 to 6.32", "unit": "µg/mL"}, {"measurement": "MIC", "setting": "[4]", "result": "4.32 to 6.32", "unit": "µg/mL"}, {"measurement": "Ratio", "setting": "[5]", "result": ">3"}, {"measurement": "Ratio", "setting": "[6]", "result": ">3"}]}
{"compound": "NNC(=O)c1ccncc1", "note": "[ISONIAZID]", "values": [{"measurement": "Activity", "setting": "[7]", "result": 2.5, "unit": "log10CFU"}, {"measurement": "Activity", "setting": "[8]", "result": 1.1, "unit": "log10CFU"}, {"measurement": "Activity", "setting": "[9]", "result": 6.7, "unit": "log10CFU"}]}
{"compound": "O=C(N[C@H](CO)[C@H](O)c1ccc([N+](=O)[O-])cc1)C(Cl)Cl", "note": "[CHLORAMPHENICOL]", "values": [{"measurement": "zone of inhibition at 5 µg/mL", "setting": "[10]", "result": "21 to 32", "unit": "mm"}, {"measurement": "zone of inhibition at 1 µg/mL", "setting": "[11]", "result": "21 to 32", "unit": "mm"}, {"measurement": "zone of inhibition at 1 µg/mL", "setting": "[12]", "result": "21 to 32", "unit": "mm"}, {"measurement": "zone of inhibition at 1 µg/mL", "setting": "[13]", "result": "21 to 32", "unit": "mm"}, {"measurement": "zone of inhibition at 1 µg/mL", "setting": "[14]", "result": "21 to 32", "unit": "mm"}, {"measurement": "zone of inhibition at 250 µg/mL", "setting": "[15]", "result": 27, "unit": "mm"}, {"measurement": "zone of inhibition at 250 µg/mL", "setting": "[16]", "result": 17, "unit": "mm"}, {"measurement": "zone of inhibition at 5 µg/mL", "setting": "[17]", "result": "21 to 32", "unit": "mm"}]}
{"compound": "Cc1ccc2occ(-c3cc4ccccc4oc3=O)c2c1", "values": [{"measurement": "Ratio", "setting": "[18]", "result": ">=5"}, {"measurement": "MIC", "setting": "[19]", "result": 0.2, "unit": "µg/mL"}, {"measurement": "MIC", "setting": "[20]", "result": "6.25 to 100", "unit": "µg/mL"}, {"measurement": "MIC", "setting": "[21]", "result": 0.4, "unit": "µg/mL"}, {"measurement": "Ratio", "setting": "[22]", "result": ">=5"}, {"measurement": "MIC", "setting": "[23]", "result": 0.2, "unit": "µg/mL"}, {"measurement": "Ratio", "setting": "[24]", "result": ">=5"}]}
